In the NIST ThermoML archive (doi:10.1016/j.jct.2014.09.020):

Experiment: xn = mol fraction of the nth substance listed
Conditions: Liquid; for speed of sound: Frequency=4 MHz, Single path-length method; for mass density: Vibrating tube method

c1ccc2c(c1)CCCC2 [1,2,3,4-tetrahydronaphthalene] + CCCCCCCCCC
Conditions	mass density, 100 kPa [kg/m3]	speed of sound, 100 kPa [m/s]	speed of sound, 5000 kPa [m/s]	speed of sound, 10000 kPa [m/s]	speed of sound, 15000 kPa [m/s]	speed of sound, 20000 kPa [m/s]	speed of sound, 25000 kPa [m/s]
313.15 K, x2 = 0	952.93	1413	1434	1455	1475	1495	1513
313.15 K, x2 = 0.2501	877.12	1331	1356	1380	1402	1424	1445
313.15 K, x2 = 0.5005	813.93	1265	1293	1319	1346	1370	1394
313.15 K, x2 = 0.7502	760.5	1214	1244	1273	1302	1329	1354
323.15 K, x2 = 0	944.99	1374	1397	1419	1439	1459	1480
323.15 K, x2 = 0.2501	869.27	1291	1317	1342	1365	1389	1411
323.15 K, x2 = 0.5005	806.15	1228	1255	1283	1310	1336	1361
323.15 K, x2 = 0.7502	752.77	1175	1207	1238	1268	1296	1321
333.15 K, x2 = 0	937.04	1335	1359	1383	1402	1425	1445
333.15 K, x2 = 0.2501	861.39	1254	1281	1306	1331	1356	1379
333.15 K, x2 = 0.5005	798.33	1189	1220	1249	1276	1302	1327
333.15 K, x2 = 0.7502	744.98	1137	1174	1204	1234	1263	1292

c1ccc2c(c1)CCCC2 [1,2,3,4-tetrahydronaphthalene] + CCCCCCCCCCCCCCCC
Conditions	mass density, 100 kPa [kg/m3]	speed of sound, 100 kPa [m/s]	speed of sound, 5000 kPa [m/s]	speed of sound, 10000 kPa [m/s]	speed of sound, 15000 kPa [m/s]	speed of sound, 20000 kPa [m/s]	speed of sound, 25000 kPa [m/s]
313.15 K, x2 = 0	952.93	1413	1434	1455	1475	1495	1513
313.15 K, x2 = 0.2491	871.85	1346	1371	1395	1418	1441	1461
313.15 K, x2 = 0.4995	820.52	1315	1342	1367	1391	1414	1438
313.15 K, x2 = 0.75	785.3	1298	1326	1352	1378	1403	1427
323.15 K, x2 = 0	944.99	1374	1397	1419	1439	1459	1480
323.15 K, x2 = 0.2491	864.36	1311	1337	1361	1385	1408	1429
323.15 K, x2 = 0.4995	813.31	1278	1306	1333	1358	1383	1406
323.15 K, x2 = 0.75	778.26	1262	1291	1319	1345	1369	1393
333.15 K, x2 = 0	937.04	1335	1359	1383	1402	1425	1445
333.15 K, x2 = 0.2491	856.85	1274	1300	1326	1350	1374	1396
333.15 K, x2 = 0.4995	806.07	1242	1271	1298	1325	1350	1374
333.15 K, x2 = 0.75	771.21	1224	1253	1282	1309	1335	1361
